Laboratory results from patent publication US20180110824A1, “Macrocyclic Modulators of the Ghrelin Receptor” (Ocera Therapeutics, Inc., priority 2016, published 2018).
pEC50, pKi: −log10 of the molar value.

These molecules were tested against T1, human growth hormone secretagogue receptor (hGHS-R1a) (Homo sapiens, UniProt Q92847) (assay: Competitive radioligand binding assay (ghrelin receptor), [125I]-ghrelin displacement on GHS-R/HEK 293 membranes). Details: Binding activity at the human ghrelin receptor, [125I]-ghrelin displacement; read-out: Ki.
T1 construct: purchased PerkinElmer BioSignal #RBHGHSM; host or cells: HEK-293, stably transfected
T1 sequence (Q92847 whole entry): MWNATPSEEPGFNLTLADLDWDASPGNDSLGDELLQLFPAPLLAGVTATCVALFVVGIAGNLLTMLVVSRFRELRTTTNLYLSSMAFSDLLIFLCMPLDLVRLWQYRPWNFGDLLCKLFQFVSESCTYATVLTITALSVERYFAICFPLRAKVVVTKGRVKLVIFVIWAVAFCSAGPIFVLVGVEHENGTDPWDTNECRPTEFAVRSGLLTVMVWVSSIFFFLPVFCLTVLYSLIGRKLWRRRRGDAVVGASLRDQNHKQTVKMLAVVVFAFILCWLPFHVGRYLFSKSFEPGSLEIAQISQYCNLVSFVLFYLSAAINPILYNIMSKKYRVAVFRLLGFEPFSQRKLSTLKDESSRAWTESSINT

Compared with `CCCC[C@@H]1NCCOc2ccccc2CCCNC(=O)[C@@H](Cc2ccccc2)NC(=O)CN(C)C1=O` [Compound 1], `CCC[C@@H]1NCCOc2ccccc2CCCNC(=O)[C@@H](Cc2ccccc2)NC(=O)CN(CC)C1=O` [compound 5] is lower in pKi: 7.00 to 8.00 for the first, 6.00 to 7.00 for the second.

`CC(C)[C@@H]1NCCOc2ccccc2CCCNC(=O)[C@@H](Cc2ccccc2)NC(=O)CN(C)C1=O` [Compound 3] and `CCC(C)C1NCCOc2ccccc2CCCNC(=O)C(Cc2ccccc2)NC(=O)C(C)NC1=O` (centres unmarked) [compound 2] fall in the same range of pKi: 6.00 to 7.00 for the first, 6.00 to 7.00 for the second.

`CCC[C@@H]1NCCOc2ccccc2CCCNC(=O)[C@@H](Cc2c[nH]c3ccccc23)NC(=O)CN(C)C1=O` [Compound 6] and `CC(C)C[C@@H]1NCCOc2ccccc2CCCNC(=O)[C@@H](Cc2ccccc2)NC(=O)C2(CCCC2)NC1=O` [compound 97] fall in the same range of pKi: 6.00 to 7.00 for the first, 6.00 to 7.00 for the second.

First: CC(C)C[C@@H]1NCCOc2ccccc2/C=C/CNC(=O)[C@H](Cc2ccccc2)NC(=O)C2(CCCC2)NC1=O [Compound 8]
Second: CC(C)C[C@@H]1NCCOc2ccccc2/C=C/CNC(=O)[C@H](CC(C)C)NC(=O)C2(CCCC2)NC1=O [compound 47]
The pKi of the first is higher: 7.00 to 8.00 for the first, 6.00 to 7.00 for the second.

`CCC(C)[C@@H]1NC[C@@H](C)Oc2ccccc2CCCNC(=O)[C@@H](Cc2ccccc2)NC(=O)[C@@H](C)N(C)C1=O` (some centres unmarked) [compound 35] gave a pKi of 7.00 to 8.00.
For `CCC(C)[C@@H]1NC[C@@H](C)Oc2ccccc2CCCNC(=O)[C@@H](Cc2ccccc2)NC(=O)[C@@H](C)N(C)C1=O` (some centres unmarked) [compound 36], the pKi was 7.00 to 8.00.

Same assay, conditions: Table 4; TFA salts unless otherwise noted; read-out: Ki

First: CCCC[C@@H]1NCCOc2ccccc2CCCNC(=O)[C@@H](Cc2ccccc2)NC(=O)CN(C)C1=O [Compound 1]
Second: CCC[C@@H]1NCCOc2ccccc2CCCNC(=O)[C@@H](Cc2ccccc2)NC(=O)CN(CC)C1=O [compound 5]
The pKi of the first is higher: 7.00 to 8.00 for the first, 6.00 to 7.00 for the second.

`CC(C)[C@@H]1NCCOc2ccccc2CCCNC(=O)[C@@H](Cc2ccccc2)NC(=O)CN(C)C1=O` [Compound 3] and `CCC(C)C1NCCOc2ccccc2CCCNC(=O)C(Cc2ccccc2)NC(=O)C(C)NC1=O` (centres unmarked) [compound 2] fall in the same range of pKi: 6.00 to 7.00 for the first, 6.00 to 7.00 for the second.

First: CCC[C@@H]1NCCOc2ccccc2CCCNC(=O)[C@@H](Cc2c[nH]c3ccccc23)NC(=O)CN(C)C1=O [Compound 6]
Second: CC(C)C[C@@H]1NCCOc2ccccc2CCCNC(=O)[C@@H](Cc2ccccc2)NC(=O)C2(CCCC2)NC1=O [compound 97]
The pKi of the first is lower: 6.00 to 7.00 for the first, 7.00 to 8.00 for the second. The second binds more tightly here.

First: CC(C)C[C@@H]1NCCOc2ccccc2/C=C/CNC(=O)[C@H](Cc2ccccc2)NC(=O)C2(CCCC2)NC1=O [Compound 8]
Second: CC(C)C[C@@H]1NCCOc2ccccc2/C=C/CNC(=O)[C@H](CC(C)C)NC(=O)C2(CCCC2)NC1=O [compound 47]
The pKi of the first is higher: 7.00 to 8.00 for the first, 6.00 to 7.00 for the second. The first binds more tightly here.

`CCC(C)[C@@H]1NC[C@@H](C)Oc2ccccc2CCCNC(=O)[C@@H](Cc2ccccc2)NC(=O)[C@@H](C)N(C)C1=O` (some centres unmarked) [compound 35] showed a pKi of 7.00 to 8.00.

What follows are molecules tested against motilin receptor (Homo sapiens, UniProt O43193) (assay: Selectivity for the ghrelin receptor versus the motilin receptor). Details: not given.
Sequence of motilin receptor (O43193 whole entry, species assumed): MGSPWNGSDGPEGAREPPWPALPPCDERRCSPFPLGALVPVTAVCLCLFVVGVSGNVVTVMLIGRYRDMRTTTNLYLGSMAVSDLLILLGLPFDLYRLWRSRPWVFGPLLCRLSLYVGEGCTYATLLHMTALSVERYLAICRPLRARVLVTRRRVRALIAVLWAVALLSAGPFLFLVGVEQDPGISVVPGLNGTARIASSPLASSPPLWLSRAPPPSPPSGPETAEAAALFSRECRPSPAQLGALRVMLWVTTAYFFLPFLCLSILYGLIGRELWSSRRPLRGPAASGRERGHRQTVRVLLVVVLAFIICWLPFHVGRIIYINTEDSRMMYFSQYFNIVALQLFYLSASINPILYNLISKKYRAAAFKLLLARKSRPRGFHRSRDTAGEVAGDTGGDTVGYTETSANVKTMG
Type: binding
Description: The level of agonist activity and selectivity for representative compounds of the invention are shown below in Table 4.

With `CCCC[C@@H]1NCCOc2ccccc2CCCNC(=O)[C@@H](Cc2ccccc2)NC(=O)CN(C)C1=O` [Compound 1] the Selectivity was 142/1.
With `CCC[C@@H]1NCCOc2ccccc2CCCNC(=O)[C@@H](Cc2c[nH]c3ccccc23)NC(=O)CN(C)C1=O` [Compound 6] the Selectivity was 71/1.
For `CC(C)C[C@@H]1NCCOc2ccccc2/C=C/CNC(=O)[C@H](Cc2ccccc2)NC(=O)C2(CCCC2)NC1=O` [Compound 8], the Selectivity was 200/1.

These molecules were tested against T2, human ghrelin receptor (hGHS-R1a) (Homo sapiens, UniProt Q92847) (assay: Aequorin functional assay (ghrelin receptor), CHO-K1 cells co-expressing Gα16 and aequorin). Details: Table 4; functional (agonist) activity; TFA salts unless otherwise noted; read-out: EC50.
T2 construct: host or cells: CHO-K1 co-expressing Gα16 and mitochondrially targeted aequorin
T2 sequence (Q92847 whole entry): as the sequence (Q92847 whole entry) above
Type: cell-based
Protocol: This cell line is typically constructed by transfection of the human ghrelin receptor into CHO-K1 cells co-expressing Gα16 and the mitochondrially targeted Aequorin (Ref #ES-WT-A5). • 1. […] Assay buffer: DMEM (Dulbecco's Modified Eagles Medium) containing 0.1% BSA (bovine serum albumin; pH 7.0). • 3. Coelenterazine (Molecular Probes, Leiden, The Netherlands). • Final test concentrations (N=8) for compounds of the invention: 10, 1, 0.3, 0.1, 0.03, 0.01, 0.003, 0.001 μM.
Stock solutions of compounds (10 mM in 100% DMSO) were provided frozen on dry ice and stored at −20° C. prior to use. […] Assay plates were then prepared by appropriate dilution in DMEM medium containing 0.1% BSA. Under these conditions, the maximal final DMSO concentration in the assay was <0.6%.
AequoScreen™ cells were collected from culture plates with Ca^2+ and Mg^2+-free phosphate buffered saline (PBS) supplemented with 5 mM EDTA, pelleted for 2 min at 1000×g re-suspended in DMEM—Ham's F12 containing 0.1% BSA at a density of 5×10^6 cells/mL, and incubated O/N at rt in the presence of 5 μM coelenterazine. After loading, cells were diluted with assay buffer to a concentration of 5×10^5 cells/mL.
For agonist testing, 50 μL of the cell suspension was mixed with 50 μL of the appropriate concentration of test compound or ghrelin (reference agonist) in 96-well plates (duplicate samples). Ghrelin (reference agonist) was tested at several concentrations concurrently with the test compounds in order to validate the experiment. The emission of light resulting from receptor activation in response to ghrelin or test compounds was recorded using the Hamamatsu FDSS 6000 reader (Hamamatsu Photonics K.K., Japan).
Results were expressed as Relative Light Units (RLU). […] EC50, Hill slope and % Emax values are reported.
• 1. Assay performed on CHO-K1 cells expressing the transfected, cloned human ghrelin receptor (hGHS-R1a) and Gα16. • 2. Suspended cells incubated O/N with coelenterazine. • 3. Stimulation of hGHS-R1a activates Gα16, causing […] Ca2+ release which ultimately leads to the oxidation of coelenterazine and the emission of a quantitative luminescent signal. • 4. Ghrelin was used as the positive control. • 5.

`CCCC[C@@H]1NCCOc2ccccc2CCCNC(=O)[C@@H](Cc2ccccc2)NC(=O)CN(C)C1=O` [Compound 1] and `CCC[C@@H]1NCCOc2ccccc2CCCNC(=O)[C@@H](Cc2ccccc2)NC(=O)CN(CC)C1=O` [compound 5] fall in the same range of pEC50: 6.00 to 7.00 for the first, 6.00 to 7.00 for the second.

`CC(C)[C@@H]1NCCOc2ccccc2CCCNC(=O)[C@@H](Cc2ccccc2)NC(=O)CN(C)C1=O` [Compound 3] and `CCC(C)C1NCCOc2ccccc2CCCNC(=O)C(Cc2ccccc2)NC(=O)C(C)NC1=O` (centres unmarked) [compound 2] fall in the same range of pEC50: 6.00 to 7.00 for the first, 6.00 to 7.00 for the second.

First: CCC[C@@H]1NCCOc2ccccc2CCCNC(=O)[C@@H](Cc2c[nH]c3ccccc23)NC(=O)CN(C)C1=O [Compound 6]
Second: CC(C)C[C@@H]1NCCOc2ccccc2CCCNC(=O)[C@@H](Cc2ccccc2)NC(=O)C2(CCCC2)NC1=O [compound 97]
The pEC50 of the first is higher: 7.00 to 9.00 for the first, 6.00 to 7.00 for the second. The first is the more potent here.

`CC(C)C[C@@H]1NCCOc2ccccc2/C=C/CNC(=O)[C@H](Cc2ccccc2)NC(=O)C2(CCCC2)NC1=O` [Compound 8] and `CC(C)C[C@@H]1NCCOc2ccccc2/C=C/CNC(=O)[C@H](CC(C)C)NC(=O)C2(CCCC2)NC1=O` [compound 47] fall in the same range of pEC50: 7.00 to 9.00 for the first, 7.00 to 9.00 for the second.

For `CCC(C)[C@@H]1NC[C@@H](C)Oc2ccccc2CCCNC(=O)[C@@H](Cc2ccccc2)NC(=O)[C@@H](C)N(C)C1=O` (some centres unmarked) [compound 35], the pEC50 was 7.00 to 9.00.
For `CCC(C)[C@@H]1NC[C@@H](C)Oc2ccccc2CCCNC(=O)[C@@H](Cc2ccccc2)NC(=O)[C@@H](C)N(C)C1=O` (some centres unmarked) [compound 36], the pEC50 was 6.00 to 7.00.
